SMILES strings stand for the structures. Some results are limits rather than exact numbers.

For orientation: inhibition means the change of the read-out against control, counted positive when it falls. Usually IC50 stands for the concentration needed to halve the response being measured.

In series [1] the target is T1, CYP1B1 (Homo sapiens, UniProt Q16678).
T1 sequence (Q16678 whole entry): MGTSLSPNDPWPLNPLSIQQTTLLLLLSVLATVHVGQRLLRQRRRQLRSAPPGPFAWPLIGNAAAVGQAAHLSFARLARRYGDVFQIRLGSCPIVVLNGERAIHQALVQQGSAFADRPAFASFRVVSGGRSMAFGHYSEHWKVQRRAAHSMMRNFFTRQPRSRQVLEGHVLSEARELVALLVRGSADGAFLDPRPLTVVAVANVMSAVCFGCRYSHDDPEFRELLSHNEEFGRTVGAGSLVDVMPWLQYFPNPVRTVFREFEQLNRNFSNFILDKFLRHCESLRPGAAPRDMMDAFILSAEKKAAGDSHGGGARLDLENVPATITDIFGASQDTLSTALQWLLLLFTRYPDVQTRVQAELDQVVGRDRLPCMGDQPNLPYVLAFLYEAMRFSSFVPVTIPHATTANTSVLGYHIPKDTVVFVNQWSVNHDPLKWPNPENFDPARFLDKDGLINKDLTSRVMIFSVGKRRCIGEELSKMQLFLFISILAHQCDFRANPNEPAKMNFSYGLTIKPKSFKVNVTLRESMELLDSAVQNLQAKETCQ
In words: Inhibition of recombinant human CYP1B1 assessed as inhibition ratio at 100 nM using 7-ethyl-0-resorufin as substrate incubated for 30 mins in presence of NADPH by EROD assay relative to control. Particulars: recombinant human CYP1B1, probe 7-ethyl-0-resorufin.

For series [2], the target named is T2, Cytochrome P450 1A1 (Homo sapiens, UniProt P04798).
T2 sequence (P04798 whole entry): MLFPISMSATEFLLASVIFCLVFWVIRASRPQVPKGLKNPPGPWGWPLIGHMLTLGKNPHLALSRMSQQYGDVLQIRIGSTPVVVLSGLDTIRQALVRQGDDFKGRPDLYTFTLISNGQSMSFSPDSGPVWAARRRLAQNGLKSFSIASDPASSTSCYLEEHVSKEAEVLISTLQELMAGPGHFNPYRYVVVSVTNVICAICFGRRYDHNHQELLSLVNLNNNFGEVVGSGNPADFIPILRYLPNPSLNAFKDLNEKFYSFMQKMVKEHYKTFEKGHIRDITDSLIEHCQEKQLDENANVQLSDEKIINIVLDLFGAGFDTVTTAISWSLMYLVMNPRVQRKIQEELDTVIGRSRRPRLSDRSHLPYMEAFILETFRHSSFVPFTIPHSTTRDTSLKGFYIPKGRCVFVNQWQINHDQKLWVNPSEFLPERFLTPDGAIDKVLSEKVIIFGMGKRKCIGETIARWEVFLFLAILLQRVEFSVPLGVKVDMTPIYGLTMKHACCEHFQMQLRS
The experiment in a line: Inhibition of recombinant human CYP1A1 using 7-ethyl-0-resorufin as substrate incubated for 30 mins in presence of NADPH by EROD assay.

In series [3] the target is T3, Cytochrome P450 1B1 (Homo sapiens, UniProt Q16678).
T3 sequence (Q16678 whole entry): T1 sequence (Q16678 whole entry)
In words: Inhibition of recombinant human CYP1B1 using 7-ethyl-0-resorufin as substrate incubated for 30 mins in presence of NADPH by EROD assay.

Series [4] deals with CYP1A1 versus CYP1B1. In words: Selectivity index, ratio of IC50 for inhibition of recombinant human CYP1A1 to IC50 for inhibition of recombinant human CYP1B1. Conditions: recombinant human CYP1A1 and recombinant human CYP1B1.
The test system of series [5] is CYP1A2 versus CYP1B1. In words: Selectivity index, ratio of IC50 for inhibition of recombinant human CYP1A2 to IC50 for inhibition of recombinant human CYP1B1. Particulars: recombinant human CYP1A2 and recombinant human CYP1B1.
In series [6] the target is T4, Cytochrome P450 1A2 (Homo sapiens, UniProt P05177).
T4 sequence (P05177 whole entry): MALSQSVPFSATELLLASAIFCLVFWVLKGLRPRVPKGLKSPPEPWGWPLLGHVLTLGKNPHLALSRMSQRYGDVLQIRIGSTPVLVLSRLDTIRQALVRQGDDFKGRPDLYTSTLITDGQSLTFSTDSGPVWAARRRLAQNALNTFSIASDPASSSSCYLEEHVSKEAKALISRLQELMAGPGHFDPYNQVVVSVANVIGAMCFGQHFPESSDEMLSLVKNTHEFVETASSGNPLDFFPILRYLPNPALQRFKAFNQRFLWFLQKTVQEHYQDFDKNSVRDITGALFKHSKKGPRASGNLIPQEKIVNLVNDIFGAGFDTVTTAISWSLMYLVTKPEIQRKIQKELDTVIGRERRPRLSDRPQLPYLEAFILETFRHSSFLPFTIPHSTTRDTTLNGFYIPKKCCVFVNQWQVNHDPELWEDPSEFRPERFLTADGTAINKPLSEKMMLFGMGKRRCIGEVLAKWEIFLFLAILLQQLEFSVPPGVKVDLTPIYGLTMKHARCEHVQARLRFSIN
In words: Inhibition of recombinant human CYP1A2 using 7-ethyl-0-resorufin as substrate incubated for 30 mins in presence of NADPH by EROD assay.

Turning to `c1csc(-c2csc(Nc3ccc(-n4cncn4)cc3)n2)n1`, in series [1], the inhibition at 0.5 h, 0.1 µM turned out to be 82%.
On to `COc1cc(Nc2nc(-c3nc(-c4ccc(F)cc4)cs3)cs2)cc(OC)c1`, for which the IC50 in series [2] is greater than 10000 nM; in series [3], 65.1 nM.
The corresponding values for `COc1ccc(-c2csc(-c3csc(Nc4cc(OC)cc(OC)c4)n3)n2)cc1` are 823 nM and 51.3 nM.
With `C#CCOc1ccccc1-c1csc(-c2csc(Nc3cccc(F)c3)n2)n1`, the selectivity ratio was found to be 5.64 in series [4] and 46.8 in series [5]. The results for the IC50 in series [2], in series [6] and in series [3] were 125 nM, 1040 nM and 22.2 nM, respectively.
On to `COc1cc(Nc2nc(-c3nc(-c4ccccc4)c(C)s3)cs2)cc(OC)c1`, for which the selectivity ratio turned out to be 5.98 in series [4] and 14.1 in series [5]. Further, the figures for the IC50 in series [2], in series [6] and in series [3] were 388 nM, 913 nM and 64.8 nM, respectively.
In the case of `c1cnc2ccc(Nc3nc(-c4nccs4)cs3)cc2c1`, in series [1], the inhibition at 0.5 h, 0.1 µM is 93.4%.
The same measure, in the same setting: the result for `Oc1cccc(Nc2nc(-c3nccs3)cs2)c1` reads 72.8%.
For the molecule `Clc1cc(Cl)cc(Nc2nc(-c3nc(-c4ccccc4Cl)cs3)cs2)c1`, the IC50 in series [2] amounted to 1120 nM; in series [3] it was 6.64 nM.
Take `COc1cccc(-c2csc(-c3csc(Nc4ccc(N5CCOCC5)cc4)n3)n2)c1`: the values for the selectivity ratio in series [4] and in series [5] were 11.7 and 174, respectively. For the same molecule, the IC50 was found to be 315 nM in series [2], 4670 nM in series [6] and 26.8 nM in series [3].
Consider `Fc1ccc(Nc2nc(-c3nccs3)cs2)cc1Cl`, for which the inhibition at 0.5 h, 0.1 µM in series [1] is 94.1%.
Take `COc1cc(Nc2nc(-c3nc(-c4cccc(C#N)c4)cs3)cs2)cc(OC)c1`: the IC50 in series [2] was 552 nM; in series [3], 16.7 nM.
As for `CCc1sc(-c2csc(Nc3cc(OC)cc(OC)c3)n2)nc1-c1ccccc1`, the selectivity ratio is 56.3 in series [4] and 484 in series [5]. Moreover, the IC50 was determined as 611 nM in series [2], 5250 nM in series [6] and 10.8 nM in series [3].
With `COc1cc(Nc2nc(-c3nc(-c4cccc(Cl)c4)cs3)cs2)cc(OC)c1`, the IC50 in series [2] was found to be 6520 nM; in series [3], 15.9 nM.
As for `CCc1sc(-c2csc(Nc3cc(Cl)cc(Cl)c3)n2)nc1-c1ccccc1`, the selectivity ratio in series [4] came to 3.39; in series [5], 7.69. For the same molecule, the results for the IC50 in series [2], in series [6] and in series [3] were 99.9 nM, 227 nM and 29.5 nM, respectively.
With `Fc1cccc(Nc2nc(-c3nc(-c4ccccc4)cs3)cs2)c1`, the IC50 in series [2] is 1270 nM; in series [3] it was 6.49 nM.
Regarding `Fc1ccc(Nc2nc(-c3nccs3)cs2)nc1`, the inhibition at 0.5 h, 0.1 µM in series [1] amounted to 75%.
Same read-out and setting: the result for `COc1ccc(Nc2nc(-c3nccs3)cs2)cc1` reads 78%.
Regarding `CCc1sc(-c2csc(Nc3cccc(F)c3)n2)nc1-c1ccccc1`, the IC50 in series [2] and in series [3] was 246 nM in each case.
With `Fc1ccccc1Nc1nc(-c2nccs2)cs1`, in series [1], the inhibition at 0.5 h, 0.1 µM came out at 89.6%.
`c1ccc(-c2csc(-c3csc(Nc4ccc(N5CCOCC5)cc4)n3)n2)nc1`: the selectivity ratio in series [4] was found to be 3.71; in series [5], 905. The IC50 in series [2] was found to be 47.9 nM; in series [6], 11700 nM; in series [3] it was 12.9 nM.
With `Clc1ccc(Nc2nc(-c3nccs3)cs2)nc1`, the inhibition at 0.5 h, 0.1 µM in series [1] is 78.8%.
As to `Fc1cccc(Nc2nc(-c3nc(-c4cccnc4)cs3)cs2)c1`, the results for the IC50 in series [2] and in series [3] were 30.3 nM and 0.551 nM, respectively.
For `c1cc(Nc2nc(-c3nccs3)cs2)c2cccnc2c1`, the inhibition at 0.5 h, 0.1 µM in series [1] is 36%.
For the molecule `Nc1ccc(Nc2nc(-c3nccs3)cs2)cc1`, the inhibition at 0.5 h, 0.1 µM in series [1] was 54%.
Regarding `Fc1ccc(Nc2nc(-c3nccs3)cs2)cc1`, the IC50 is 957 nM in series [2] and 35.7 nM in series [3]. In addition, in series [1], the inhibition at 0.5 h, 0.1 µM is 92%.
With `CN1CCN(c2ccc(Nc3nc(-c4nccs4)cs3)cc2)CC1`, the inhibition at 0.5 h, 0.1 µM in series [1] was 51%.
`COc1cc(Nc2nc(-c3nc(-c4ccc(Cl)cc4F)cs3)cs2)cc(OC)c1`: the IC50 in series [2] was greater than 10000 nM; in series [6], greater than 10000 nM; in series [3], 12.7 nM.
Turning to `c1cc(Nc2nc(-c3nccs3)cs2)cc(-n2ccnc2)c1`, the inhibition at 0.5 h, 0.1 µM in series [1] was determined as 92.4%.
As for `Clc1cc(Cl)cc(Nc2nc(-c3nc(-c4ccccc4)cs3)cs2)c1`, the IC50 in series [2] was 896 nM; in series [3], 20.1 nM.
Take `Nc1cccc(Nc2nc(-c3nccs3)cs2)c1`: the inhibition at 0.5 h, 0.1 µM in series [1] was 57.9%.
Still for that read-out and setting: the figure for `Oc1ccc(Nc2nc(-c3nccs3)cs2)cc1` is 73.9%.
Take `Fc1cccc(Nc2nc(-c3nc(-c4ccccc4)c(-c4ccccc4)s3)cs2)c1`: the IC50 in series [2] came out at 6780 nM; in series [3], 518 nM.
As for `Clc1ccccc1Nc1nc(-c2nccs2)cs1`, the inhibition at 0.5 h, 0.1 µM in series [1] stood at 72.8%.
For the molecule `COc1ccc(Nc2nc(-c3nccs3)cs2)cc1OC`, in series [1], the inhibition at 0.5 h, 0.1 µM was found to be 78.9%.
Same read-out and setting: the figure for `c1ccc(Nc2nc(-c3nccs3)cs2)cc1` is 56.4%.
Same read-out and setting: the result for `c1ccc2cc(Nc3nc(-c4nccs4)cs3)ccc2c1` reads 80%.
For the molecule `Fc1cccc(Nc2nc(-c3nc(-c4ccccn4)cs3)cs2)c1`, the IC50 in series [2] was 314 nM; in series [3], 11.8 nM.
As for `Fc1cccc(Nc2nc(-c3nc(-c4ccc(Cl)cc4F)cs3)cs2)c1`, the IC50 is greater than 10000 nM in series [2], greater than 10000 nM in series [6] and greater than 1000 nM in series [3].
As to `O=[N+]([O-])c1ccc(Nc2nc(-c3nccs3)cs2)cc1`, in series [1], the inhibition at 0.5 h, 0.1 µM was found to be 41.3%.
As to `Fc1cc(Cl)ccc1-c1csc(-c2csc(Nc3ccc(N4CCOCC4)cc3)n2)n1`, the selectivity ratio in series [5] is 1.86. In addition, the figures for the IC50 in series [2], in series [6] and in series [3] were greater than 10000 nM, 995 nM and 534 nM, respectively.
For the molecule `c1csc(-c2csc(Nc3ccc(N4CCNCC4)cc3)n2)n1`, in series [1], the inhibition at 0.5 h, 0.1 µM came to 43.7%.
Consider `COc1cccc(Nc2nc(-c3nccs3)cs2)c1`, for which the selectivity ratio in series [4] was 5.39. In addition, the IC50 in series [2] came out at 414 nM. Moreover, the inhibition at 0.5 h, 0.1 µM in series [1] was 94.2%.
Consider `O=[N+]([O-])c1cccc(Nc2nc(-c3nccs3)cs2)c1`, for which the inhibition at 0.5 h, 0.1 µM in series [1] turned out to be 57.6%.
The same measure, in the same setting: the figure for `COc1ccccc1Nc1nc(-c2nccs2)cs1` is 60%.
In the case of `COc1cc(Nc2nc(-c3nc(-c4ccccc4)cs3)cs2)cc(OC)c1`, the IC50 was 222 nM in series [2] and 3.92 nM in series [3].
For the molecule `N#Cc1ccc(Nc2nc(-c3nccs3)cs2)cc1`, the inhibition at 0.5 h, 0.1 µM in series [1] came to 81.5%.
The same measure, in the same setting: the figure for `CC(=O)Nc1cccc(Nc2nc(-c3nccs3)cs2)c1` is 93.7%.
Regarding `Clc1cccc(Nc2nc(-c3nccs3)cs2)c1`, the IC50 in series [2] was 262 nM; in series [3], 7.6 nM. In addition, the inhibition at 0.5 h, 0.1 µM in series [1] was determined as 90%.
Consider `COc1cc(Nc2nc(-c3nc(-c4cccc(F)c4)cs3)cs2)cc(OC)c1`, for which the values for the IC50 in series [2] and in series [3] were 820 nM and 11.1 nM, respectively.

The record behind these values is ChEMBL document CHEMBL5236635, “Structure-Based Drug Design and Synthesis of Novel N-Aryl-2,4-bithiazole-2-amine CYP1B1-Selective Inhibitors in Overcoming Taxol Resistance in A549 Cells” (J Med Chem, 2022).
